The results in this text go back to patent US20090181972A1, “Novel Inhibitors of Cysteine Proteases, the Pharmaceutical Compositions Thereof and their Therapeutic Applications” (priority 2005, published 2009).

One test deals with T1, SENP1 (Homo sapiens, UniProt Q9P0U3).
T1 construct: made in house; host or cells: E. coli BL21
T1 sequence (Q9P0U3 1-644): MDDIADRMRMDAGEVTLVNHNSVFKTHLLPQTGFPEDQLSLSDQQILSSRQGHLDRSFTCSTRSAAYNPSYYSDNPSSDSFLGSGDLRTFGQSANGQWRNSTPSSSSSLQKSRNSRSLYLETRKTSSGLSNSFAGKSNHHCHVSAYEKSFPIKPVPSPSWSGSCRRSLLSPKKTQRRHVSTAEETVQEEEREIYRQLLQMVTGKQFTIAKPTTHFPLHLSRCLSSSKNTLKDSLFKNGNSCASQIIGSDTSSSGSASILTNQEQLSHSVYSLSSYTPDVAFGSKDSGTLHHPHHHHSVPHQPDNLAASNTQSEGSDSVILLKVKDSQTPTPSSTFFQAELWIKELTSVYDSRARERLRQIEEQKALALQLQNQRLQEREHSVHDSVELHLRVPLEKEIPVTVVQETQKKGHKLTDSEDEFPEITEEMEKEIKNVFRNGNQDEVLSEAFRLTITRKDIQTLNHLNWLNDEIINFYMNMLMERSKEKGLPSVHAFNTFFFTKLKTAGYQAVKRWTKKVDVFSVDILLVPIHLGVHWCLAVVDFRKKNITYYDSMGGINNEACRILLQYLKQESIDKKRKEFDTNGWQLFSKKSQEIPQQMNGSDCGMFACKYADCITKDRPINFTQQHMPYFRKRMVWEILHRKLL
Description: SENP1 activity assay. The class given is biochemical. The conditions noted are these: MBP-SENP1 1.8 nM, 200 nM SUMO-AMC; pre-incubated 30 minutes at 25° C., 60 minutes at 37° C.; sigmoidal fit. Here is the method:
The cDNA encoding SENP1 was obtained by PCR amplification from placenta mRNA. SENP1 cDNA was subcloned by PCR into a bacterial expression vector (pMAL-C2X; New England BioLabs, Inc). The sequence was ascertained by sequencing of the entire open reading frame. pMAL-C2-SENP1 was transformed into BL21 cells and grown in LB-ampicillin medium supplemented with glucose (2 g.l^−1). Fusion protein expression was induced by IPTG (0.5 mM). Bacterial cell lysates were harvested and lyzed in lysis buffer (Tris HCl 20 mM pH 7.4; 1 mM EDTA; 200 mM NaCl; 0.5% Triton X-100; 10 % glycerol; Protease Inhibitor Cocktail) followed by sonication. Proteins were affinity purified on amylose affinity resin (New England BioLabs, Inc). Bound materials were extensively washed in wash buffer (20 mM Tris HCl pH 7.4; 200 mM NaCl; 1 mM EDTA; 0.5% Triton X-100; 10% glycerol) and eluted from the resin in 10 mM maltose-containing wash buffer. Proteins were dialyzed in dialysis buffer (Tris HCl pH 7.6 20 mM; NaCl 200 mM; DTT 1 mM; EDTA 1 mM; 10% Glycerol). Proteins purifications were analyzed on 4-12% NuPAGE (Invitrogen).
MBP-SENP1 was diluted in SENP1 buffer (50 mM Tris HCl; 0.5 mM EDTA; 5 mM DTT; 0.01 % Triton X-100; Bovine Serum Albumin 0.05 mg.ml^−1 pH 7.6). Compounds stocks (100 mM) were stored at −20° C. in DMSO. Compounds were tested at the following final concentrations: 100 μM; 33.3 μM; 11.1 μM; 3.7 μM; 1.23 μM; 412 nM; 137 nM; 45.7 nM; 15.2 nM; 5 nM.
Reactions were performed as duplicates in Black LJL 96 well plates (HE microplates; Molecular Devices; 20 μl final reaction volume). The substrate concentration for SENP1 was 200 nM SUMO-AMC (Chem. Biol., 2003, 10, p. 837-846) (Boston Biochem). The concentration of the enzyme (SENP1) in specificity assays was 1.8 nM. The concentrations were determined in order to perform specificity assays under initial velocities at fixed substrate concentration. Compounds were pre-incubated with enzymes for 30 minutes at 25° C. Reactions were initiated by addition of substrate to the plates containing the enzymes (+/− compounds) diluted in assay buffer. Reactions were incubated for 60 minutes at 37° C. Reactions were stopped by adding acetic acid (100 mM final). Readings were performed on a Pherastar Fluorescent Reader (BMG). λ Emission 380 nm; λ Excitation=460 nm. Data (mean values +/− standard deviation) were analyzed as % of control (no compound) and plotted as percentage versus the Log of the compound concentration using GraphPad (Prism). Data were fitted to a sigmoidal model (variable slope).

The test system of test [1] is HCT116 colon cancer cells. Description: HCT116 cell viability and proliferation assay (MTS). The conditions noted are these: Homo sapiens, HCT-116, 72 hours incubation, mean of three independent experiments, read-out: HCT116 GI50 D3. It is filed as cell-based. Here is the method: HCT116 colon cancer cells were obtained from ATCC (American Type Culture Collection), and maintained in Mc Coy's 5A medium containing 10% FBS, 3 mM glutamine and 1% penicillin/streptomycin. Cells were incubated at 37° C. in a humidified atmosphere containing 5% CO2.
Cell viability was assayed using the MTS technique in 96-well culture plates (CellTiter 96® Aqueous Non-Radioactive Cell Proliferation Assay, Promega) according to the manufacturer's instructions. MTS (3-(4,5-dimethyl-thiazol-2-yl)-5-(3-carboxymethoxyphenyl)-2-(4-sulfophenyl)-2H-tetra-zolium) is a MTT-derived tetrazolium that is reduced in metabolically active cells into a soluble, cell-permeant formazan. The amount of formazan, detected by its absorbance at 492 nm is proportional to the number of living, metabolically active cells.
10^3 HCT116 cells were seeded per well. 24 hours later, the medium was changed and the cells treated in triplicate with the following concentrations of each compound: 10 μM-3.33 μM-1.11 μM-370 nM-123 nM-41 nM-14 nM and 5 nM. The compounds were diluted in 100% DMSO, whose final concentration on cells was kept at 0.5%.
Cells were incubated with the compounds for 72 hours, and their viability then assayed by the addition of MTS for 2 hours. Absorbance at 492 nm was measured directly from the 96-well culture plates. G150 (Growth Inhibition 50) concentrations for each compound were calculated using a sigmoidal variable slope fit (Prism 4.0, Graphpad Softwares). Values represent mean of three independent experiments.

In test [2] the test system is PC-3 prostate cancer cells. Description: PC3 cell viability and proliferation assay (MTS). Particulars: Homo sapiens, PC-3, 72 hours incubation, mean of three independent experiments, read-out: PC3 GI50 D3. It is filed as cell-based. On the procedure: PC-3 prostate cancer cells were obtained from ATCC, and maintained in F-12K medium containing 7% FBS and 1% penicillin/streptomycin. Cells were incubated at 37° C. in a humidified atmosphere containing 5% CO2.
Cell viability was assayed using the MTS technique in 96-well culture plates (CellTiter 96® Aqueous Non-Radioactive Cell Proliferation Assay, Promega) according to the manufacturer's instructions. MTS (3-(4,5-dimethyl-thiazol-2-yl)-5-(3-carboxymethoxyphenyl)-2-(4-sulfophenyl)-2H-tetrazolium) is a MTT-derived tetrazolium that is reduced in metabolically active cells into a soluble, cell-permeant formazan. The amount of formazan, detected by its absorbance at 492 nm is proportional to the number of living, metabolically active cells.
2×10^3 PC3 cells were seeded per well. 24 hours later, the medium was changed and the cells treated in triplicate with the following concentrations of each compound: 10 μM-3.33 μM-1.11 μM-370 nM-123 nM-41 nM-14 nM and 5 nM. The compounds were diluted in 100% DMSO, whose final concentration on cells was kept at 0.5%.
Cells were incubated with the compounds for 72 hours, and their viability then assayed by the addition of MTS for 2 hours. Absorbance at 492 nm was measured directly from the 96-well culture plates. GI50 (Growth Inhibition 50) concentrations for each compound were calculated using a sigmoidal variable slope fit (Prism 4.0, Graphpad Softwares). Values represent mean of three independent experiments.

For a further test, the target named is T2, Caspase 3 (Homo sapiens, UniProt P42574).
T2 sequence (P42574 29-175 limits assumed): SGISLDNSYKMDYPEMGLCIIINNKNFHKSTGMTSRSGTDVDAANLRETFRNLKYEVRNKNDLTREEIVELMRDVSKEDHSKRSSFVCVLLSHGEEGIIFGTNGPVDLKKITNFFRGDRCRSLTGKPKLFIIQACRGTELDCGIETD
T2 sequence (P42574 176-277 limits assumed): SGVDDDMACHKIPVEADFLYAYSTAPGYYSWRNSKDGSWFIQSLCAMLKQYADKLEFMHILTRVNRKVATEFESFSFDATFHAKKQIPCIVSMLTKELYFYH
Description: Caspase 3 activity assay. The class given is biochemical. The conditions noted are these: 500 nM Ac-DEVD-AMC, 3.2 nM enzyme; pre-incubated 30 minutes at 25° C., 60 minutes at 37° C.; sigmoidal fit. Here is the method: Caspase 3 was diluted in Caspase 3 buffer (100 mM Hepes pH 7.5; 10% sucrose; 0.1% CHAPS). Compounds stocks (100 mM) were stored at −20° C. in DMSO. Compounds were tested at the following final concentrations: 100 μM; 33.3 μM; 11.1 μM; 3.7 μM; 1.23 μM; 412 nM; 137 nM; 45.7 nM; 15.2 nM; 5 nM. Reactions were performed as duplicates in Black LJL 96 well plates (HE microplates; Molecular Devices; 20 μl final reaction volume). The substrate concentration for caspase 3 specificity assay was 500 nM (Ac-DEVD-AMC; Promega). The concentration of the enzyme (Caspase 3) in specificity assays was 3.2 nM. The concentrations were determined in order to perform specificity assays under initial velocities at fixed substrate concentration. Compounds were pre-incubated with enzymes for 30 minutes at 25° C. Reactions were initiated by addition of substrate to the plates containing the enzymes (+/− compounds) diluted in assay buffer. Reactions were incubated for 60 minutes at 37° C. Reactions were stopped by adding acetic acid (100 mM final). Readings were performed on a Pherastar Fluorescent Reader (BMG). δ Emission 380 nm; δ Excitation=460 nm. Data (mean values +/− standard deviation) were analyzed as % of control (no compound) and plotted as percentage versus the Log of the compound concentration using GraphPad (Prism). Data were fitted to a sigmoidal model (variable slope).

A word on the IC50: it is the point on the concentration scale where inhibition reaches its midpoint. The low end stands for greater potency, the high end for weaker potency. Usually GI50 stands for the concentration at which growth is held to half of that of the control. On to `Cc1nnc2nc3c(nn12)C(=O)c1ccccc1-3` [Example 1b/A, 1-Methyl-2,3,4,10,10a-pentaaza-cyclopenta[b]fluoren-9-one], for which the half-inhibitory concentration (IC50) on SENP1 was > 100 µM. Besides, the GI50 in test [1] turned out to be 1.3 µM; in test [2] it was 7.09 µM.
The matching figures for `O=C1c2ccccc2-c2nc3nnc(CO)n3nc21` [Example 1h/A, 1-Hydroxymethyl-2,3,4,10,10a-pentaaza-cyclopenta[b]fluoren-9-one]: > 100 µM, 2.05 µM and 4 µM.
For the molecule `Nc1nnc2nc3c(nn12)-c1ccccc1C3=O` [Example 1c/B, 3-Amino-1,2,3a,4,10-pentaaza-cyclopenta[b]fluoren-9-one], the concentration for half-maximal inhibition (IC50) on Caspase 3 was found to be 0.212 µM. Moreover, the GI50 in test [1] turned out to be 0.981 µM; in test [2], 3.17 µM.
